# Assay results: ChEMBL document CHEMBL6177948, “Discovery of potential Leonurine-based therapeutic lead MJ210 attenuates Parkinson's disease pathogenesis via NF-κB and MAPK pathways: Mechanistic insights from in vitro and in vivo rotenone models” (Eur J Med Chem, 2025)
# Calls of active or inactive are those of the source. No cut-off for these calls is given here.
# What was measured:
# Rattus norvegicus [1] = assay: (§1) In vivo inhibition of MAPK signaling pathway in rotenone-induced parkinson disease male Wistar rat model assessed as reduction in JNK phosphorylation level in substantia nigra at 5 mg/kg, ip pretreated with compound every alternative days followed by rotenone addition and measured after 42 days by Western blotting analysis; format: functional, organism-based; details: time 42.0 day
# Rattus norvegicus [2] = assay: Anti-parkinson activity in rotenone-induced male Wistar rat model assessed as increase DAT expression in substantia nigra at 5 mg/kg, ip pretreated with compound every alternative days followed by rotenone addition and measured after 42 days by Western blotting analysis; format: functional, organism-based; details: time 42.0 day
# Rattus norvegicus [3] = assay: Anti-inflammatory activity in rotenone-induced male Wistar rat model assessed as reduction in COX2 expression level in striatum at 5 mg/kg, ip pretreated with compound every alternative days followed by rotenone addition and measured after 42 days by ELISA; format: functional, organism-based; details: time 42.0 day
# SH-SY5Y [4] = assay: Inhibition of MAPK signaling pathway in rotenone-induced human SH-SY5Y cells assessed as reduction in JNK phosphorylation level by ELISA; format: cell-based
# SH-SY5Y [5] = assay: (§2) Neuroprotective activity against rotenone-induced mitochondrial morphological changes in human SH-SY5Y cells assessed as intact tubular at 5 uM preincubated with compound for 24 hrs followed by rotenone addition and measured after 24 hrs by Mito Tracker staining based fluorescence microscopic analysis; format: functional, cell-based; details: time 48.0 hrs
# Rattus norvegicus [6] = assay: (§3) Anti-parkinson activity in rotenone-induced neurodegeneration in male Wistar rat model assessed as minimal neuronal loss in cortex at 5 mg/kg, ip pretreated with compound every alternative days followed by rotenone addition and measured after 42 days by H and E staining based analysis; format: functional, organism-based; details: time 42.0 day
# [7] = Toxicity in male Wistar rat assessed as change in heart morphology at 1 to 10 mg/kg by H and E staining based analysis; format: organism-based; details: in vivo, dose 1-10 mg/kg
# SH-SY5Y [8] = assay: Neuroprotective activity against rotenone-induced cytotoxicity in human SH-SY5Y cells assessed as increase in green fluorescence at 5 uM by Calcein-AM and PI staining based fluorescence microscopy analysis; format: functional, cell-based
# SH-SY5Y [9] = assay: as §2, with “ROS generation” for “morphological changes”, “decrease in ROS level” for “intact tubular”; format: functional, cell-based; details: time 48.0 hrs
# Rattus norvegicus [10] = assay: Anti-inflammatory activity in rotenone-induced male Wistar rat model assessed as reduction in phosphorylated NF-kappaB P65 protein expression level in striatum at 5 mg/kg, ip pretreated with compound every alternative days followed by rotenone addition and measured after 42 days by ELISA; format: functional, organism-based; details: time 42.0 day
# Rattus norvegicus [11] = assay: Anti-parkinson activity in rotenone-induced male Wistar rat model assessed as increase in TH expression in substantia nigra at 5 to 10 mg/kg, ip pretreated with compound every alternative days followed by rotenone addition and measured after 42 days by Western blotting analysis; format: functional, organism-based; details: dose 5-10 mg/kg, time 42.0 day
# SH-SY5Y [12] = assay: as §2, with “ROS generation” for “morphological changes”, “decrease in ROS level” for “intact tubular”, “[…]” for “Mito Tracker”; format: functional, cell-based; details: time 48.0 hrs
# Rattus norvegicus [13] = assay: as §3, with “decrease count of pyknotic cells” for “minimal neuronal loss”, “substantia nigra” for “cortex”; format: functional, organism-based; details: time 42.0 day
# [14] = Drug uptake in male Wistar rat brain at 5 mg/kg, ip measured after 6 hrs by HPLC analysis; format: ADME, organism-based; details: in vivo
# Rattus norvegicus [15] = assay: as §1, with “ERK1/2” for “JNK”, “striatum” for “substantia nigra”; format: functional, organism-based; details: time 42.0 day
# [16] = Toxicity in male Wistar rat assessed as change in cellular structure of heart at 1 to 10 mg/kg by H and E staining based analysis; format: organism-based; details: in vivo, dose 1-10 mg/kg
# Rattus norvegicus [17] = assay: Anti-parkinson activity in rotenone-induced neurodegeneration in male Wistar rat model assessed as decrease count of pyknotic cells in striatum at 5 mg/kg, ip pretreated with compound every alternative days followed by rotenone addition and measured after 42 days by H and E staining based analysis; format: functional, organism-based; details: time 42.0 day
# Rattus norvegicus [18] = assay: Anti-parkinson activity in rotenone-induced male Wistar rat assessed as increase in TH positive fiber density in striatum at 5 mg/kg, ip pretreated with compound every alternative days followed by rotenone addition and measured after 42 days by immunofluorescence staining based analysis; format: functional, organism-based; details: time 42.0 day
# [19] = molecular target: Transcription factor p65 (Homo sapiens) (UniProt Q04206); assay: Inhibition of rotenone-induced NFkappaB p65 translocation from cytosol to nucleus in human SH-SY5Y cells pretreated with compound followed by rotenone addition by DAPI staining based immunocytochemistry analysis; format: cell-based
# Rattus norvegicus [20] = assay: Anti-parkinson activity in rotenone-induced male Wistar rat model assessed as increase DAT expression in striatum at 5 mg/kg, ip pretreated with compound every alternative days followed by rotenone addition and measured after 42 days by Western blotting analysis; format: functional, organism-based; details: time 42.0 day
# [21] = Toxicity in male Wistar rat assessed as change in cellular structure of liver at 1 to 10 mg/kg by H and E staining based analysis; format: organism-based; details: in vivo, dose 1-10 mg/kg
# SH-SY5Y [22] = assay: Neuroprotective activity against rotenone-induced cytotoxicity in human SH-SY5Y cells assessed as increase in cell viability at 1 to 20 uM incubated for 24 hrs by MTT assay relative to control; format: functional; details: dose 1-20 µM
# Transcription factor p65 (Homo sapiens), sequence (Q04206 whole entry): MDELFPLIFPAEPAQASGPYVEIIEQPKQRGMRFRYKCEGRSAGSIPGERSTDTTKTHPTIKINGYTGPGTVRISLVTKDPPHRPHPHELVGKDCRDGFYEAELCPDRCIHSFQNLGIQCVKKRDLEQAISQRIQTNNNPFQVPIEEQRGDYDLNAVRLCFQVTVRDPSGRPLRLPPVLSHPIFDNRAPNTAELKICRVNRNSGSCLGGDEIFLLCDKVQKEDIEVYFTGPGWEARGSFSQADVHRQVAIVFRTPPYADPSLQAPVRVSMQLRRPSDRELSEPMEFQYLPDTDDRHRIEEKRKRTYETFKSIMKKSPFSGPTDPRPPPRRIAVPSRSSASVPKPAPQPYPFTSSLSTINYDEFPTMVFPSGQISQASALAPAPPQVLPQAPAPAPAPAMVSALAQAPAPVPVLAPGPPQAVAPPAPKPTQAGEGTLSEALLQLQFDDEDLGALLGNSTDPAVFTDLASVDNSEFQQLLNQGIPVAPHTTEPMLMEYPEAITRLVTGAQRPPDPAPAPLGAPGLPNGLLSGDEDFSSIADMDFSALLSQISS
smiles,measurement,setting,value
COc1cc(CCC(=O)N2CCCCC2)cc(OC)c1OC(=O)c1ccccn1,inhibition,Rattus norvegicus [1],Active
same,Activity,Rattus norvegicus [2],Active
same,Activity,Rattus norvegicus [3],Active
same,inhibition,SH-SY5Y [4],Active
same,Activity,SH-SY5Y [5],Active
same,Activity,Rattus norvegicus [6],Active
same,Activity,[7],Non-toxic
same,Activity,SH-SY5Y [8],Active
same,Activity,SH-SY5Y [9],Active
same,Activity,Rattus norvegicus [10],Active
same,Activity,Rattus norvegicus [11],Active
same,Activity,SH-SY5Y [12],Active
same,Activity,Rattus norvegicus [13],Active
same,Drug uptake,[14],Active
same,inhibition,Rattus norvegicus [15],Active
same,Activity,[16],Non-toxic
same,Activity,Rattus norvegicus [17],Active
same,Activity,Rattus norvegicus [18],Active
same,inhibition,[19],Active
same,Activity,Rattus norvegicus [20],Active
same,Activity,[21],Non-toxic
same,Activity,SH-SY5Y [22],81.9%
